Tested on: Transport facilitation protein genes
Test: DNA chip mRNA expression in yeast, transport facilitation protein genes (Table 5)
Format: cell-based, Saccharomyces cerevisiae S288C
Method in brief: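 Measured as treated-to-untreated fluorescence ratio on a full-genome yeast DNA chip. Cells (S288C, YPD, 25° C.) were exposed in log phase for two hours to one chemical, dosed to curb growth without killing.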

Structure (SMILES): [Cl][Hg][Cl] [(3), HgCl2]
- The level of expressed mRNA in the presence of chemical substance/The level of expressed mRNA in the absence of chemical substance (yeast gene YBL030C): 4.5
- The level of expressed mRNA in the presence of chemical substance/The level of expressed mRNA in the absence of chemical substance (yeast gene YBL099W): 3.1
- The level of expressed mRNA in the presence of chemical substance/The level of expressed mRNA in the absence of chemical substance (yeast gene YBR052C): 1.5
- The level of expressed mRNA in the presence of chemical substance/The level of expressed mRNA in the absence of chemical substance (yeast gene YBR068C): 1.9
- The level of expressed mRNA in the presence of chemical substance/The level of expressed mRNA in the absence of chemical substance (yeast gene YBR127C): 2.2
- The level of expressed mRNA in the presence of chemical substance/The level of expressed mRNA in the absence of chemical substance (yeast gene YBR132C): 2.4
- The level of expressed mRNA in the presence of chemical substance/The level of expressed mRNA in the absence of chemical substance (yeast gene YBR207W): 0.8
- The level of expressed mRNA in the presence of chemical substance/The level of expressed mRNA in the absence of chemical substance (yeast gene YBR293W): 1.0
- The level of expressed mRNA in the presence of chemical substance/The level of expressed mRNA in the absence of chemical substance (yeast gene YBR294W): 0.9
- The level of expressed mRNA in the presence of chemical substance/The level of expressed mRNA in the absence of chemical substance (yeast gene YBR295W): 3.3
- The level of expressed mRNA in the presence of chemical substance/The level of expressed mRNA in the absence of chemical substance (yeast gene YBR298C): 1.6
- The level of expressed mRNA in the presence of chemical substance/The level of expressed mRNA in the absence of chemical substance (yeast gene YCL025C): 2.5
- The level of expressed mRNA in the presence of chemical substance/The level of expressed mRNA in the absence of chemical substance (yeast gene YCL038C): 1.4
- The level of expressed mRNA in the presence of chemical substance/The level of expressed mRNA in the absence of chemical substance (yeast gene YCR024C-A): 3.2
- The level of expressed mRNA in the presence of chemical substance/The level of expressed mRNA in the absence of chemical substance (yeast gene YCR037C): 0.8
- The level of expressed mRNA in the presence of chemical substance/The level of expressed mRNA in the absence of chemical substance (yeast gene YCR098C): 1.7
- The level of expressed mRNA in the presence of chemical substance/The level of expressed mRNA in the absence of chemical substance (yeast gene YDL128W): 2.1
- The level of expressed mRNA in the presence of chemical substance/The level of expressed mRNA in the absence of chemical substance (yeast gene YDL198C): 2.1
- The level of expressed mRNA in the presence of chemical substance/The level of expressed mRNA in the absence of chemical substance (yeast gene YDL210W): 2.7
- The level of expressed mRNA in the presence of chemical substance/The level of expressed mRNA in the absence of chemical substance (yeast gene YDL245C): 1.6
- The level of expressed mRNA in the presence of chemical substance/The level of expressed mRNA in the absence of chemical substance (yeast gene YDR038C): 3.1
- The level of expressed mRNA in the presence of chemical substance/The level of expressed mRNA in the absence of chemical substance (yeast gene YDR039C): 3.2
- The level of expressed mRNA in the presence of chemical substance/The level of expressed mRNA in the absence of chemical substance (yeast gene YDR086C): 1.2
- The level of expressed mRNA in the presence of chemical substance/The level of expressed mRNA in the absence of chemical substance (yeast gene YDR270W): 1.4
- The level of expressed mRNA in the presence of chemical substance/The level of expressed mRNA in the absence of chemical substance (yeast gene YDR298C): 2.6
- The level of expressed mRNA in the presence of chemical substance/The level of expressed mRNA in the absence of chemical substance (yeast gene YDR342C): 12.2
- The level of expressed mRNA in the presence of chemical substance/The level of expressed mRNA in the absence of chemical substance (yeast gene YDR343C): 20.6
- The level of expressed mRNA in the presence of chemical substance/The level of expressed mRNA in the absence of chemical substance (yeast gene YDR345C): 5.6
- The level of expressed mRNA in the presence of chemical substance/The level of expressed mRNA in the absence of chemical substance (yeast gene YDR387C): 1.2
- The level of expressed mRNA in the presence of chemical substance/The level of expressed mRNA in the absence of chemical substance (yeast gene YDR497C): 0.6
- The level of expressed mRNA in the presence of chemical substance/The level of expressed mRNA in the absence of chemical substance (yeast gene YEL027W): 3.4
- The level of expressed mRNA in the presence of chemical substance/The level of expressed mRNA in the absence of chemical substance (yeast gene YEL063C): 2.4
- The level of expressed mRNA in the presence of chemical substance/The level of expressed mRNA in the absence of chemical substance (yeast gene YEL065W): 1.2
- The level of expressed mRNA in the presence of chemical substance/The level of expressed mRNA in the absence of chemical substance (yeast gene YER053C): 1.9
- The level of expressed mRNA in the presence of chemical substance/The level of expressed mRNA in the absence of chemical substance (yeast gene YFL011W): 3.7
- The level of expressed mRNA in the presence of chemical substance/The level of expressed mRNA in the absence of chemical substance (yeast gene YFL041W): 1.4
- The level of expressed mRNA in the presence of chemical substance/The level of expressed mRNA in the absence of chemical substance (yeast gene YFL050C): 1.1
- The level of expressed mRNA in the presence of chemical substance/The level of expressed mRNA in the absence of chemical substance (yeast gene YFL054C): 1.4
- The level of expressed mRNA in the presence of chemical substance/The level of expressed mRNA in the absence of chemical substance (yeast gene YGL006W): 1.3
- The level of expressed mRNA in the presence of chemical substance/The level of expressed mRNA in the absence of chemical substance (yeast gene YGL008C): 3.1
- The level of expressed mRNA in the presence of chemical substance/The level of expressed mRNA in the absence of chemical substance (yeast gene YGL104C): 2.1
- The level of expressed mRNA in the presence of chemical substance/The level of expressed mRNA in the absence of chemical substance (yeast gene YGL167C): 1.6
- The level of expressed mRNA in the presence of chemical substance/The level of expressed mRNA in the absence of chemical substance (yeast gene YGL255W): 0.9
- The level of expressed mRNA in the presence of chemical substance/The level of expressed mRNA in the absence of chemical substance (yeast gene YGR055W): 12.0
- The level of expressed mRNA in the presence of chemical substance/The level of expressed mRNA in the absence of chemical substance (yeast gene YGR065C): 2.6
- The level of expressed mRNA in the presence of chemical substance/The level of expressed mRNA in the absence of chemical substance (yeast gene YGR082W): 2.2
- The level of expressed mRNA in the presence of chemical substance/The level of expressed mRNA in the absence of chemical substance (yeast gene YGR096W): 1.1
- The level of expressed mRNA in the presence of chemical substance/The level of expressed mRNA in the absence of chemical substance (yeast gene YGR138C): 1.0
- The level of expressed mRNA in the presence of chemical substance/The level of expressed mRNA in the absence of chemical substance (yeast gene YGR191W): 1.6
- The level of expressed mRNA in the presence of chemical substance/The level of expressed mRNA in the absence of chemical substance (yeast gene YGR197C): 2.5

Source: patent publication US8192962B2, “Processes for detecting toxic substances” (Daikin Industries, Ltd., priority 2001, dated 2012)
